Experimental data taken from ChEMBL document CHEMBL1143799, “Synthesis and primary cytotoxicity evaluation of new imidazo[2,1-b]thiazole derivatives” (2007).

What was measured:
Assay type in all cases: functional
[1] = test system: DU-145; assay: Growth inhibition of human DU145 cells after 48 hrs by SRB protein assay; details: DU-145, 48 h
[2] = test system: OVCAR-3; assay: Growth inhibition of human OVCAR-3 cells after 48 hrs by SRB protein assay; details: OVCAR-3, 48 h
[3] = test system: RXF 393; assay: Growth inhibition of human RXF393 cells after 48 hrs by SRB protein assay; details: RXF 393, 48 h
[4] = test system: SK-OV-3; assay: Growth inhibition of human SK-OV-3 cells after 48 hrs by SRB protein assay; details: SK-OV-3, 48 h
[5] = test system: MCF7; assay: Growth inhibition of human MCF7 cells after 48 hrs by SRB protein assay; details: MCF7, 48 h
[6] = test system: ACHN; assay: Growth inhibition of human ACHN cells after 48 hrs by SRB protein assay
[7] = test system: MDA-MB-231; assay: Growth inhibition of MDA-MB-231 cells after 48 hrs by SRB protein assay; details: Homo sapiens, MDA-MB-231, 48 h
[8] = test system: BT-549; assay: Growth inhibition of human BT549 cells after 48 hrs by SRB protein assay; details: BT-549, 48 h
[9] = test system: NCI-H522; assay: Growth inhibition of human NCI-H522 cells after 48 hrs by SRB protein assay; details: NCI-H522, 48 h
[10] = test system: UACC-62; assay: Growth inhibition of human UACC62 cells after 48 hrs by SRB protein assay; details: UACC-62, 48 h
[11] = test system: MOLT-4; assay: Growth inhibition of human MOLT4 cells after 48 hrs by SRB protein assay; details: MOLT-4, 48 h
[12] = test system: IGROV-1; assay: Growth inhibition of human IGROV1 cells after 48 hrs by SRB protein assay; details: IGROV-1, 48 h
[13] = test system: RPMI-8226; assay: Growth inhibition of human RPMI8226 cells after 48 hrs by SRB protein assay; details: RPMI-8226, 48 h
[14] = test system: T47D; assay: Growth inhibition of human T47D cells after 48 hrs by SRB protein assay
[15] = test system: EKVX; assay: Growth inhibition of human EKVX cells after 48 hrs by SRB protein assay
[16] = test system: PC-3; assay: Growth inhibition of human PC3 cells after 48 hrs by SRB protein assay; details: PC-3, 48 h
[17] = test system: M14; assay: Growth inhibition of human M14 cells after 48 hrs by SRB protein assay; details: M14, 48 h
[18] = test system: SN12C; assay: Growth inhibition of human SN12C cells after 48 hrs by SRB protein assay
[19] = test system: A549; assay: Growth inhibition of human A549 cells after 48 hrs by SRB protein assay; details: A549, 48 h
[20] = test system: SK-MEL-5; assay: Growth inhibition of human SK-MEL-5 cells after 48 hrs by SRB protein assay; details: SK-MEL-5, 48 h
[21] = test system: MDA-MB-435; assay: Growth inhibition of human MDA-MB-435 cells after 48 hrs by SRB protein assay; details: MDA-MB-435, 48 h
[22] = test system: Hs-578T; assay: Growth inhibition of human HS578T cells after 48 hrs by SRB protein assay
[23] = test system: SK-MEL-2; assay: Growth inhibition of human SK-MEL-2 cells after 48 hrs by SRB protein assay; details: SK-MEL-2, 48 h
[24] = test system: UACC-257; assay: Growth inhibition of human UACC257 cells after 48 hrs by SRB protein assay; details: UACC-257, 48 h
[25] = test system: NCI-H460; assay: Growth inhibition of human NCI-H460 cells after 48 hrs by SRB protein assay; details: NCI-H460, 48 h
[26] = test system: KM12; assay: Growth inhibition of human KM12 cells after 48 hrs by SRB protein assay; details: KM12, 48 h
[27] = test system: HCT-116; assay: Growth inhibition of human HCT116 cells after 48 hrs by SRB protein assay; details: HCT-116, 48 h
[28] = test system: SNB-75; assay: Growth inhibition of human SNB75 cells after 48 hrs by SRB protein assay; details: SNB-75, 48 h
[29] = test system: COLO 205; assay: Growth inhibition of human COLO205 cells after 48 hrs by SRB protein assay; details: COLO 205, 48 h
[30] = test system: HT-29; assay: Growth inhibition of human HT29 cells after 48 hrs by SRB protein assay; details: HT-29, 48 h
[31] = test system: U-251; assay: Growth inhibition human U251 of cells after 48 hrs by SRB protein assay; details: U-251, 48 h
[32] = test system: SF-539; assay: Growth inhibition of human SF539 cells after 48 hrs by SRB protein assay; details: SF-539, 48 h
[33] = test system: NCI-H23; assay: Growth inhibition of human NCI-H23 cells after 48 hrs by SRB protein assay; details: NCI-H23, 48 h
[34] = test system: OVCAR-5; assay: Growth inhibition of human OVCAR5 cells after 48 hrs by SRB protein assay; details: OVCAR-5, 48 h
[35] = test system: OVCAR-8; assay: Growth inhibition of human OVCAR8 cells after 48 hrs by SRB protein assay; details: OVCAR-8, 48 h
[36] = test system: HCC 2998; assay: Growth inhibition of human HCC2998 cells after 48 hrs by SRB protein assay; details: HCC 2998, 48 h
[37] = test system: UO-31; assay: Growth inhibition of human UO31 cells after 48 hrs by SRB protein assay; details: UO-31, 48 h
[38] = test system: CAKI-1; assay: Growth inhibition of human CAKI1 cells after 48 hrs by SRB protein assay; details: CAKI-1, 48 h
[39] = test system: SW-620; assay: Growth inhibition of human SW620 cells after 48 hrs by SRB protein assay; details: SW-620, 48 h

GI50 [1]: 26.3 µM
GI50 [2]: 34.7 µM
GI50 [4]: > 100 µM
GI50 [5]: > 100 µM
GI50 [6]: 22.4 µM
GI50 [7]: 26.3 µM
GI50 [8]: 25.7 µM
GI50 [9]: 25.7 µM
GI50 [11]: 1 µM
GI50 [13]: 79.4 µM
GI50 [14]: > 100 µM
GI50 [16]: 30.2 µM
GI50 [19]: 17 µM
GI50 [20]: 44.7 µM
GI50 [21]: 31.6 µM
GI50 [23]: 72.4 µM
GI50 [25]: > 100 µM
GI50 [27]: 17 µM
GI50 [29]: 75.9 µM
GI50 [30]: 40.7 µM
GI50 [31]: 20.4 µM
GI50 [33]: 25.7 µM
GI50 [34]: 28.8 µM
GI50 [35]: 18.6 µM
GI50 [36]: 20 µM
GI50 [39]: 22.9 µM
SMILES: O=C(Cc1csc2nc(-c3ccc(Br)cc3)cn12)N/N=C/c1ccc(Cl)cc1Cl
TGI ([1]; read-out: Log TGI (converted)): > 100 µM
TGI ([2]; read-out: Log TGI (converted)): > 100 µM
GI50 [3]: 28.2 µM
TGI ([3]; read-out: Log TGI (converted)): 85.1 µM
TGI ([4]; read-out: Log TGI (converted)): > 100 µM
TGI ([5]; read-out: Log TGI (converted)): > 100 µM
TGI ([6]; read-out: Log TGI (converted)): 53.7 µM
TGI ([7]; read-out: Log TGI (converted)): > 100 µM
TGI ([8]; read-out: Log TGI (converted)): 77.6 µM
TGI ([9]; read-out: Log TGI (converted)): > 100 µM
GI50 [10]: 23.4 µM
TGI ([10]; read-out: Log TGI (converted)): 67.6 µM
TGI ([11]; read-out: Log TGI (converted)): 26.3 µM
GI50 [12]: 15.8 µM
TGI ([12]; read-out: Log TGI (converted)): 45.7 µM
TGI ([13]; read-out: Log TGI (converted)): > 100 µM
TGI ([14]; read-out: Log TGI (converted)): > 100 µM
GI50 [15]: 31.6 µM
TGI ([15]; read-out: Log TGI (converted)): > 100 µM
TGI ([16]; read-out: Log TGI (converted)): > 100 µM
GI50 [17]: 33.1 µM
TGI ([17]; read-out: Log TGI (converted)): > 100 µM
GI50 [18]: 85.1 µM
TGI ([18]; read-out: Log TGI (converted)): > 100 µM
TGI ([19]; read-out: Log TGI (converted)): 37.2 µM
TGI ([20]; read-out: Log TGI (converted)): > 100 µM
TGI ([21]; read-out: Log TGI (converted)): > 100 µM
GI50 [22]: 31.6 µM
TGI ([22]; read-out: Log TGI (converted)): 89.1 µM
TGI ([23]; read-out: Log TGI (converted)): > 100 µM
GI50 [24]: 69.2 µM
TGI ([24]; read-out: Log TGI (converted)): > 100 µM
TGI ([25]; read-out: Log TGI (converted)): > 100 µM
GI50 [26]: 38 µM
TGI ([26]; read-out: Log TGI (converted)): > 100 µM
TGI ([27]; read-out: Log TGI (converted)): 37.2 µM
GI50 [28]: 37.2 µM
TGI ([28]; read-out: Log TGI (converted)): > 100 µM
TGI ([29]; read-out: Log TGI (converted)): > 100 µM
TGI ([30]; read-out: Log TGI (converted)): > 100 µM
TGI ([31]; read-out: Log TGI (converted)): 44.7 µM
GI50 [32]: 26.9 µM
TGI ([32]; read-out: Log TGI (converted)): 63.1 µM
TGI ([33]; read-out: Log TGI (converted)): 56.2 µM
TGI ([34]; read-out: Log TGI (converted)): 67.6 µM
TGI ([35]; read-out: Log TGI (converted)): 50.1 µM
TGI ([36]; read-out: Log TGI (converted)): 44.7 µM
GI50 [37]: 72.4 µM
TGI ([37]; read-out: Log TGI (converted)): > 100 µM
GI50 [38]: 36.3 µM
TGI ([38]; read-out: Log TGI (converted)): > 100 µM
TGI ([39]; read-out: Log TGI (converted)): 60.3 µM
